Reference: article PMC6595003, “Insights into real-time chemical processes in a calcium sensor protein-directed dynamic library” (Nature Communications, 2019)
Several values for one entry are separate records, joined by “and”; a condition that tells them apart may be missing. Equal entries are not always repeated. One block for each molecule: values may come before it.

How the values were obtained:
dNCS-1 [1] = molecular target: T1, dNCS-1 (Drosophila melanogaster, UniProt Q9VWX8); assay: Tryptophan emission fluorescence of dNCS-1 at increasing ligand concentrations (apparent Kd); assay type: binding
T1 construct: made in house; host or cells: E. coli
T1 sequence (Q9VWX8 1-187): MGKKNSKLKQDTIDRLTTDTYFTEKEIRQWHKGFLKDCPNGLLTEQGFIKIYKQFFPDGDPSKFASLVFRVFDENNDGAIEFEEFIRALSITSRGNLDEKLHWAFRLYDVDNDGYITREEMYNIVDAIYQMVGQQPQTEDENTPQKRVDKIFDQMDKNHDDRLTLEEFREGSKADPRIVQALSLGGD
Description: Fluorescence-based experiments with 3a–3e were carried out to estimate their affinity to dNCS-1.
Mean ± SD from three independent experiments. The curves represent the least squares fitting of the experimental data to a 1:1 stoichiometry. To properly compare the different curves, intensities were normalized and represented. […] Input represents 1/10 cell lysates before IP. Quantifications of each lane from four experiments are shown below the blots. Bars represent percentage of NCS-1/ Ric8a binding (mean ± SD) normalized to DMSO. […] Mean ± SD from three independent experiments. […] Then, the percentage of picnotic bodies over the total nuclei was analyzed. Mean ± SD from three independent experiments. Paired two-tailed Student’s test ***P˂0.001; **P < 0.01; *P < 0.05. Source data are provided as a Source Data file. IP immunoprecipitation, WB western blot […]
the length of the pass light (L) is 1cm (see Supplementary Table 3 and Supplementary […]
Fluorescence emission experiments. Tryptophan emission fluorescence of dNCS-1 […]
affinity and calculate the apparent dissociation constant, Kd. Fluorescence measurements were performed by Jobin Yvon Floromax4 spectrofluorimeter equipped […]
5% DMSO at 5 °C. The excitation wavelength was fixed at 295 nm, and the emission spectra range were collected over 300-400 nm.
Then, three independent experiments were performed
Fluorescence intensities were normalized and represented as (I0 − I)/I 0. I stands for the observed fluorescence emission at 345 nm (fluorescence maximum), and I0 is the observed fluorescence emission of the protein itself without any small molecule. The apparent dissociation constant was obtained using a least squares algorithm to fit the experimental data to a 1:1 stoichiometry model.6 The fitting was performed with KaleidaGraph Data Analysis Program. […]
Protein expression and purification. Drosophila and human NCS-1 were over-expressed in E. coli and subsequently purified to homogeneity as previously described.9

NCS-1/Ric8a interaction [2] = molecular target: T2, NCS-1/Ric8a interaction (Homo sapiens, UniProt P62166); assay: Co-IP binding assay of human NCS-1 and V5-tagged Ric8a in transfected HEK cells; assay type: cell-based; details: compound 20 μM
T2 construct: expressed in transfected cells; host or cells: HEK293 cells (Dharmacon)
T2 sequence (P62166 2-190 limits assumed): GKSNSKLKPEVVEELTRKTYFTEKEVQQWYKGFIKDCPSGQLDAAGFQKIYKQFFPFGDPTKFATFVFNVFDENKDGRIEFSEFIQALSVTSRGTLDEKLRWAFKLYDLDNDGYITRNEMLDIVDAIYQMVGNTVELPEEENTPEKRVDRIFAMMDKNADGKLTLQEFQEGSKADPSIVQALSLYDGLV
From the text: (§1) Mean ± SD from three independent experiments. The curves represent the least squares fitting of the experimental data to a 1:1 stoichiometry. To properly compare the different curves, intensities were normalized and represented. […] Input represents 1/10 cell lysates before IP. Quantifications of each lane from four experiments are shown below the blots. Bars represent percentage of NCS-1/ Ric8a binding (mean ± SD) normalized to DMSO. […] CNS + (green) for Pe > 4.47 × 10^−6 cm s^−1, CNS- (red) for compounds with Pe < 4.47 × 10^–6 cm s^−1. […] Mean ± SD from three independent experiments. […] Then, the percentage of picnotic bodies over the total nuclei was analyzed. Mean ± SD from three independent experiments. Paired two-tailed Student’s test ***P˂0.001; **P < 0.01; *P < 0.05. Source data are provided as a Source Data file. IP immunoprecipitation, WB western blot
Binding assays with NCS-1 and Ric8a in co-transfected HEK cells were carried out to study the modulation effect of compounds 3a, 3b and 3d in the protein-protein interaction (Fig. 6b).
hNCS-1 and V5-tagged hRic8a were co-transfected into HEK293 cells (Dharmacon) using Lipofectamine 2000 (Invitrogen)[13]. After 24 h, after transfection, DMSO alone or the compounds dissolved in DMSO (20 μM) were added to the culture cells. Then, 24 h after transfection, cells were lysed with Lysis buffer (150 mM NaCl, 1.0% Nonidet P-40, 50 mM Tris, pH 8.0) in the presence of the compounds (20 μM), whose concentration was maintained throughout the immunoprecipitation assay. Precleared lysates were incubated overnight (12 h) at 4 °C with mouse anti-NCS-1 (1:500; Cell Signaling). Samples were subsequently incubated overnight with Protein-G-Sepharose (Sigma-Aldrich), washed and eluted from the Sepharose. Samples were analyzed by Western blot following standard procedures. […] Original representative western blots are found in Source Data file.

[3] = test system: Cortical neurons from E14 wild-type mice; assay: Toxicity in primary cultured neurons (percentage of picnotic bodies); assay type: cell-based; details: C57BL6J, mouse, 24 h
From the text: as §1
Finally, cell toxicity in neurons was quantified as percentage of picnotic bodies for 3b (Fig. 6d).
Cortical neurons were obtained from E14 wt mice (C57BL6J). Mice were maintained in accordance to European law and following Hospital Ramón y Cajal´s animal guidelines. […] Three independent experiments counting cells from three different wells per concentration were performed. To analyzed cell death, neurons were fixed and stained with DAPI.

NCS-1/Ric8a interaction [4] = test system: NCS-1/Ric8a interaction; design: method as in PMID 28119500, PMID 29966094; details: cited from earlier work
dNCS-1 [5] = molecular target: T1, dNCS-1; assay: Protein-directed DCL, HPLC-MS relative peak area with and without dNCS-1
Description: The reversibility of the DCL was evident, since an identical equilibrium distribution to that shown in Fig. 4a was obtained when two different starting points were employed. The observed degree of amplification was 3b > 3e ≥ 3d > 3a. The precise composition of the DCL (with and without dNCS-1), was assessed by measuring the relative peak area (RPA). Indeed, the normalized change of RPA was used to quantify the protein influence in the final outcome (Supplementary Figs. 9, 10 and Supplementary Tables 1, 2 and 3)[28]. […] Note that compounds 3a–3e can exist as E/Z isomers of the C = N bond. […].
Aldehyde 1 (1.2 μL, 50 mM, DMSO), the five acylhydrazides 2a–2e (5 × 3.6 μL, 50 mM, DMSO), p-anisidine (1 μL, 12 M, DMSO) and buffer 20 mM Tris, 0.5 M NaCl and 1 mM CaCl2, 1 mM DTT at pH 7.4 (750 μL) in 3.3 % DMSO. The mixture was stabilized in 5 h at 4 °C. HPLC analysis was performed.
Aldehyde 1 (1.2 μL, 50 mM, DMSO), the five acylhydrazides 2a–2e (5 × 3.6 μL, 50 mM, DMSO), p-anisidine (1 μL, 12 mM, DMSO) and dNCS-1 in buffer 20 mM Tris, 0.5 M NaCl and 1 mM CaCl2, 1 mM DTT at pH 7.4 (66.7 μM, 750 μL, 1 eq.). The experiment is in 3.3% DMSO. The mixture was stabilized for 5 h at 4 °C. Then, dNCS-1 was removed by ultrafiltration using an Amicon Ultra filter (0.5–10 KDa). HPLC analysis was performed and the traces were compared with the blank composition.
Supplementary Figure 9. Relative Peak Area of the DCL with and without dNCS1. Aldehyde
1 (1.2 µL, 50 mM), 2a-e (3.6 µL, 50 mM), catalyst (1 µL, 12 M), dNCS-1:1 [1:1], tris buffer (20
mM, pH 7.4), 1 mM CaCl2, 0.5 M NaCl, 1 mM DTT, T = 4 °C, 2% DM SO. Mean relative peak
area (RPA) of each acylhydrazone of the library in the absence (blank) and presence of dNCS-1.
Error bars indicate standard deviation (SD) over three experiments. The calculation is set by the
sum of all peak areas to 100% and assigning each peak its percentage. Source data are provided
R P A N o rm aliz ed V a riation
Supplementary Figure 10. RPA normalized of variation of DCL with and without dNCS1.
Aldehyde 1 (1.2 µL, 50 mM), 2a-e (3.6 µL, 50 mM), catalyst (1 µL, 12 M), dNCS-1:1 [1:1], tris
buffer (20 mM, pH 7.4), 1 mM CaCl2, 0.5 M NaCl, 1 mM DTT, T = 4 °C, 2% DM SO. Error
bars indicate SD over three experiments. Source data are provided as a Source Data file.

dNCS-1 [6] = molecular target: T1, dNCS-1; assay: tr-NOESY, DOSY and 1H-NMR of DCL mixtures in the presence of dNCS-1; assay type: binding; details: 281 K, up to 15 days
Description: Fig. 4 HPLC-MS and NMR studies of the full dynamic combinatorial library. a DCL chromatograms after 5 h in the absence and in the presence of dNCS-1. Conditions: aldehyde 1 (1.2 µL, 50 mM), 2a–2e (3.6 µL, 50 mM), catalyst (1 µL, 12 M), dNCS-1:1 [1:1], Tris buffer (20 mM, pH 7.4), 1 mM CaCl2, 0.5 M NaCl, 1 mM DTT, T = 4 °C, 2% DMSO. DCC experiments were carried out in triplicate. b 1D-^1H NMR spectrum (red) of the mixture and DOSY experiment (black) of the DCL in the presence of dNCS-1 (281 K, 600 MHz). c Tr-NOESY spectrum of the DCL mixture in the presence of dNCS-1 (mixing time 200 ms, 281 K, 600 MHz). Amplification of the region δ 7.2–8.0 ppm. […]. The new signals that reveal the formation of 3b (aromatic region) and 2c (aliphatic region) are marked with stars. ^1H-STD-NMR (blue) and off-resonance (red) NMR spectra of the mixture 2b + 3c + dNCS-1 (281 K, 600 MHz) after 15 days
DOSY-NMR and tr-NOESY-NMR experiments were also recorded to follow the exchange process.
The experiments were performed on the same samples and spectrometer, at 281 K. The tr-NOESY mixing time was fixed at 200 ms. The DOSY experiments were acquired with 16 gradient increments to a final intensity decay of 90%.

[7] = Ca2+ loaded dNCS-1 0.8 µM, pH 7.9, 5% DMSO, 5 °C, fit to 1:1 stoichiometry, three independent experiments

Kd (dNCS-1 [1]; [7]): 12 ± 2 µM | Normalized Fluorescence I0-I/I0 (dNCS-1 [1]; ligand 3.2 μM): 0.266 | Normalized Fluorescence I0-I/I0 (dNCS-1 [1]; ligand 6.4 μM): 0.263 | Normalized Fluorescence I0-I/I0 (dNCS-1 [1]; ligand 8 μM): 0.448 | Normalized Fluorescence I0-I/I0 (dNCS-1 [1]; ligand 16 μM): 0.643 | Normalized Fluorescence I0-I/I0 (dNCS-1 [1]; ligand 24 μM): 0.730 | Normalized Fluorescence I0-I/I0 (dNCS-1 [1]; ligand 32 μM): 0.794 | modulation of the NCS-1/Ric8a binding (NCS-1/Ric8a interaction [2]; compared with DMSO (basal binding 100%)): reduced binding | Densitometry of V5-Ric8a co-immunoprecipitated with NCS-1, exp3 (NCS-1/Ric8a interaction [2]; DMSO in the same experiment 4613104): 3547054 | Densitometry of V5-Ric8a co-immunoprecipitated with NCS-1, exp2 (NCS-1/Ric8a interaction [2]; DMSO in the same experiment 9508518): 4354560 | Densitometry of V5-Ric8a co-immunoprecipitated with NCS-1, exp1 (NCS-1/Ric8a interaction [2]; DMSO in the same experiment 19247016): 3883518
Structure (SMILES): CN(C)CCCN1c2ccccc2Sc2ccc(Cl)cc21 [CPZ, Chlorpromazine, reference compound]
percentage of picnotic bodies over total nuclei, average ([3]; 0.2 μM): 11.1667% | percentage of picnotic bodies, % exp 2 ([3]; 0.2 μM): 9.6% | percentage of picnotic bodies, % exp 3 ([3]; 0.2 μM): 11.1% | percentage of picnotic bodies, % exp.1 ([3]; 0.2 μM): 12.8% | percentage of picnotic bodies over total nuclei, average ([3]; 2 μM): 15.1% | percentage of picnotic bodies, % exp 2 ([3]; 2 μM): 11% | percentage of picnotic bodies, % exp 3 ([3]; 2 μM): 19.3% | percentage of picnotic bodies, % exp.1 ([3]; 2 μM): 15% | percentage of picnotic bodies over total nuclei, average ([3]; 10 μM): 22.2333% | percentage of picnotic bodies, % exp 2 ([3]; 10 μM): 25.7% | percentage of picnotic bodies, % exp 3 ([3]; 10 μM): 15% | percentage of picnotic bodies, % exp.1 ([3]; 10 μM): 26% | percentage of picnotic bodies over total nuclei, average ([3]; 20 μM): 38.7667% | percentage of picnotic bodies, % exp 2 ([3]; 20 μM): 29.3% | percentage of picnotic bodies, % exp 3 ([3]; 20 μM): 39% | percentage of picnotic bodies, % exp.1 ([3]; 20 μM): 48% | reported inhibition of the NCS-1/Ric8a interaction (NCS-1/Ric8a interaction [4]): mild inhibitor and mild

apparent Kd (dNCS-1 [1]; [7]): did not show affinity | degree of amplification in the DCL in presence of dNCS-1 (dNCS-1 [5]; after 5 h, 4 °C, pH 7.4, p-anisidine catalyst): clearly reduced in presence of dNCS-1 | RPA, Blank DCL (dNCS-1 [5]; as fraction of total area): 0.09603 | RPA, Templated DCL (dNCS-1 [5]; as fraction of total area, with dNCS-1): 0 | RPA (%) with protein (templated DCL) (dNCS-1 [5]; relative peak area in presence of dNCS-1): 0% | RPA (%) without protein (blank DCL) (dNCS-1 [5]; relative peak area, sum of all peak areas set to 100%): 9.6% and 9.603% | RPA (%), Blank DCL (dNCS-1 [5]; sheet Supplementary Figure 10): 9.6% | RPA (%), Templated DCL (dNCS-1 [5]; sheet Supplementary Figure 10, with dNCS-1): 0% | Normalized Change of RPA (dNCS-1 [5]; with vs without dNCS-1): -1
Structure (SMILES): COCCC(=O)N/N=C/c1ccc([N+](=O)[O-])c(O)c1 [3c]
binding to dNCS-1 (1H-NMR evolution of the mixture 3c + 2b with dNCS-1) (dNCS-1 [6]): extremely weak or non-binder
